Reference: PubChem BioAssay AID180 (DTP/NCI, 2004)
Where “and” joins values, the source holds several entries; their conditions need not be identical. Equal values may be shown once.

System: BDF1 mice, Adenocarcinoma 755 s.c., tumor weight T/C
Assay: NCI In Vivo Anticancer Drug Screen. Data for tumor model Adenocarcinoma 755 (subcutaneous) in B6D2F1 (BDF1) mice
Conditions: endpoint: mean tumor weight, higher = larger tumour
Method in brief: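 Values express treated (T) relative to vehicle-dosed control (C) animals, based on survival or tumour size measured after compound treatment of mice bearing a transplanted tumour.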

[1] = dose: 25.0 mg/kg/injection, schedule: Q01DX011 (ip), vehicle: methylcellulose (MC)
[2] = dose: 50.0 mg/kg/injection, schedule: Q01DX011 (ip), vehicle: methylcellulose (MC)
[3] = dose: 75.0 mg/kg/injection, schedule: Q01DX011 (ip), vehicle: methylcellulose (MC)
[4] = dose: 100.0 mg/kg/injection, schedule: Q01DX011 (ip), vehicle: methylcellulose (MC)
[5] = dose: 200.0 mg/kg/injection, schedule: Q01DX011 (ip), vehicle: carboxymethylcellulose (CMC)
[6] = dose: 30.0 mg/kg/injection, schedule: Q01DX011 (ip), vehicle: carboxymethylcellulose (CMC)
[7] = dose: 60.0 mg/kg/injection, schedule: Q01DX011 (ip), vehicle: carboxymethylcellulose (CMC)
[8] = dose: 120.0 mg/kg/injection, schedule: Q01DX011 (ip), vehicle: carboxymethylcellulose (CMC)
[9] = dose: 240.0 mg/kg/injection, schedule: Q01DX011 (ip), vehicle: carboxymethylcellulose (CMC)
[10] = dose: 150.0 mg/kg/injection, schedule: Q01DX011 (ip), vehicle: methylcellulose (MC)

`CC(/C=N\N=C(N)N)=N/N=C(N)N` was tested, and the T/C (dose: 5.75 mg/kg/injection, schedule: Q01DX011 (ip), vehicle: carboxymethylcellulose (CMC)) was 84 % of control, the T/C (dose: 7.62 mg/kg/injection, schedule: Q01DX011 (ip), vehicle: carboxymethylcellulose (CMC)) was 77 % of control and the T/C (dose: 11.5 mg/kg/injection, schedule: Q01DX011 (ip), vehicle: carboxymethylcellulose (CMC)) was 78 % of control. The T/C (dose: 15.24 mg/kg/injection, schedule: Q01DX011 (ip), vehicle: carboxymethylcellulose (CMC)) was 71 % of control, the T/C (dose: 18.4 mg/kg/injection, schedule: Q01DX011 (ip), vehicle: carboxymethylcellulose (CMC)) was 70 % of control and 86 % of control and the T/C (dose: 23.0 mg/kg/injection, schedule: Q01DX011 (ip), vehicle: carboxymethylcellulose (CMC)) was 93 % of control and 100 % of control and 80 % of control. For the same molecule, the T/C (dose: 30.48 mg/kg/injection, schedule: Q01DX011 (ip), vehicle: carboxymethylcellulose (CMC)) was 42 % of control, the T/C (dose: 46.0 mg/kg/injection, schedule: Q01DX011 (ip), vehicle: carboxymethylcellulose (CMC)) was 29 % of control and 45 % of control and 51 % of control and the T/C (dose: 60.96 mg/kg/injection, schedule: Q01DX011 (ip), vehicle: carboxymethylcellulose (CMC)) was 35 % of control.
In the case of `OCCNc1ncnc2c1ncn2C1OC(CO)C(O)C1O` (stereo unspecified), the T/C [1] is reported as 55 % of control, the T/C [2] is reported as 49 % of control and the T/C [3] is reported as 17 % of control. For the same molecule, the T/C [4] was 27 % of control and the T/C (dose: 200.0 mg/kg/injection, schedule: Q01DX011 (ip), vehicle: methylcellulose (MC)) was 7 % of control.
`CCOc1ccc2nc(S(N)(=O)=O)sc2c1` was tested, and the T/C [2] was 60 % of control, the T/C (dose: 100.0 mg/kg/injection, schedule: Q01DX011 (ip), vehicle: carboxymethylcellulose (CMC)) was 23 % of control and 30 % of control and the T/C [4] was 89 % of control. The T/C [5] was 13 % of control and the T/C (dose: 400.0 mg/kg/injection, schedule: Q01DX011 (ip), vehicle: methylcellulose (MC)) was 19 % of control.
`Cn1c[n+](C2OC(CO)C(O)C2O)c2nc([O-])[nH]c(=O)c21` (stereo unspecified) was tested, and the T/C [1] was 65 % of control, the T/C [3] was 103 % of control and the T/C (dose: 225.0 mg/kg/injection, schedule: Q01DX011 (ip), vehicle: methylcellulose (MC)) was 44 % of control.
With `Nc1[nH]cnc(=S)c1NC=O` the T/C [6] was 84 % of control, the T/C [7] was 63 % of control and the T/C [8] was 86 % of control. The T/C [5] was 101 % of control, the T/C [9] was 26 % of control and the T/C (dose: 400.0 mg/kg/injection, schedule: Q01DX011 (ip), vehicle: carboxymethylcellulose (CMC)) was 29 % of control.
In the case of `Nc1nc(SCc2cccc([N+](=O)[O-])c2)c2[nH]cnc2n1`, the T/C (dose: 37.5 mg/kg/injection, schedule: Q01DX011 (ip), vehicle: methylcellulose (MC)) is reported as 41 % of control, the T/C [3] is reported as 8 % of control and the T/C [10] is reported as 3 % of control. For the same molecule, the T/C (dose: 300.0 mg/kg/injection, schedule: Q01DX011 (ip), vehicle: methylcellulose (MC)) was 1 % of control.
`COC(C(O)C(O)C(O)C(O)CO)n1cnc2cncnc21` (stereo unspecified) was tested, and the T/C (dose: 19.0 mg/kg/injection, schedule: Q01DX011 (ip), vehicle: carboxymethylcellulose (CMC)) was 115 % of control and the T/C (dose: 57.0 mg/kg/injection, schedule: Q01DX011 (ip), vehicle: carboxymethylcellulose (CMC)) was 152 % of control.
With `CC(=O)OCC(=O)[C@@]1(O)CC[C@H]2[C@@H]3CCC4=CC(=O)C=C[C@]4(C)[C@H]3[C@@H](O)C[C@@]21C` the T/C (dose: 20.0 mg/kg/injection, schedule: Q01DX011 (sc), vehicle: steriod suspending solution) was 23 % of control and 26 % of control, the T/C (dose: 40.0 mg/kg/injection, schedule: Q01DX011 (sc), vehicle: steriod suspending solution) was 24 % of control and 26 % of control and the T/C (dose: 67.5 mg/kg/injection, schedule: Q01DX011 (sc), vehicle: steriod suspending solution) was 30 % of control. The T/C (dose: 80.0 mg/kg/injection, schedule: Q01DX011 (sc), vehicle: steriod suspending solution) was 88 % of control and the T/C (dose: 160.0 mg/kg/injection, schedule: Q01DX011 (sc), vehicle: steriod suspending solution) was 40 % of control.
For `CNC=O`, the T/C (dose: 4.41 mg/kg/injection, schedule: Q01DX011 (ip), vehicle: carboxymethylcellulose (CMC)) was 107 % of control, the T/C (dose: 8.82 mg/kg/injection, schedule: Q01DX011 (ip), vehicle: carboxymethylcellulose (CMC)) was 94 % of control and the T/C (dose: 17.65 mg/kg/injection, schedule: Q01DX011 (ip), vehicle: carboxymethylcellulose (CMC)) was 110 % of control. For the same molecule, the T/C (dose: 42.88 mg/kg/injection, schedule: Q01DX011 (ip), vehicle: carboxymethylcellulose (CMC)) was 60 % of control, the T/C (dose: 45.0 mg/kg/injection, schedule: Q01DX011 (ip), vehicle: carboxymethylcellulose (CMC)) was 113 % of control and the T/C (dose: 85.75 mg/kg/injection, schedule: Q01DX011 (ip), vehicle: carboxymethylcellulose (CMC)) was 78 % of control. The T/C (dose: 90.0 mg/kg/injection, schedule: Q01DX011 (ip), vehicle: carboxymethylcellulose (CMC)) was 99 % of control, the T/C (dose: 93.67 mg/kg/injection, schedule: Q01DX011 (ip), vehicle: carboxymethylcellulose (CMC)) was 104 % of control and the T/C (dose: 137.2 mg/kg/injection, schedule: Q01DX011 (ip), vehicle: carboxymethylcellulose (CMC)) was 70 % of control. For the same molecule, the T/C (dose: 144.0 mg/kg/injection, schedule: Q01DX011 (ip), vehicle: carboxymethylcellulose (CMC)) was 86 % of control, the T/C (dose: 180.0 mg/kg/injection, schedule: Q01DX011 (ip), vehicle: carboxymethylcellulose (CMC)) was 98 % of control and the T/C (dose: 187.35 mg/kg/injection, schedule: Q01DX011 (ip), vehicle: carboxymethylcellulose (CMC)) was 100 % of control and 111 % of control. The T/C (dose: 200.0 mg/kg/injection, schedule: Q01DX011 (ip), vehicle: saline) was 31 % of control, the T/C (dose: 228.6 mg/kg/injection, schedule: Q01DX011 (ip), vehicle: carboxymethylcellulose (CMC)) was 65 % of control and the T/C [9] was 101 % of control. For the same molecule, the T/C (dose: 250.0 mg/kg/injection, schedule: Q01DX011 (ip), vehicle: saline) was 14 % of control, the T/C (dose: 300.0 mg/kg/injection, schedule: Q01DX011 (ip), vehicle: saline) was 1 % of control and the T/C (dose: 343.0 mg/kg/injection, schedule: Q01DX011 (ip), vehicle: carboxymethylcellulose (CMC)) was 20 % of control and 30 % of control. The T/C (dose: 360.0 mg/kg/injection, schedule: Q01DX011 (ip), vehicle: carboxymethylcellulose (CMC)) was 30 % of control and 35 % of control and the T/C (dose: 374.7 mg/kg/injection, schedule: Q01DX011 (ip), vehicle: carboxymethylcellulose (CMC)) was 103 % of control.
With `c1cc[nH]c1` the T/C (dose: 40.0 mg/kg/injection, schedule: Q01DX011 (ip), vehicle: carboxymethylcellulose (CMC)) was 101 % of control, the T/C (dose: 80.0 mg/kg/injection, schedule: Q01DX011 (ip), vehicle: carboxymethylcellulose (CMC)) was 68 % of control and the T/C (dose: 160.0 mg/kg/injection, schedule: Q01DX011 (ip), vehicle: carboxymethylcellulose (CMC)) was 113 % of control.
`Cc1ccc(S(=O)(=O)OCC2OC(n3cnc4c(=O)[nH]c(N)nc43)C(O)C2O)cc1` (stereo unspecified) was tested, and the T/C (dose: 5.0 mg/kg/injection, schedule: Q01DX011 (ip), vehicle: carboxymethylcellulose (CMC)) was 108 % of control, the T/C [6] was 97 % of control and the T/C [7] was 100 % of control. The T/C [8] was 98 % of control and the T/C [9] was 62 % of control.
With `CCSc1ncnc2c1ncn2C1OC(CO)C(O)C1O` (stereo unspecified) the T/C (dose: 6.25 mg/kg/injection, schedule: Q01DX011 (ip), vehicle: saline) was 96 % of control, the T/C (dose: 12.5 mg/kg/injection, schedule: Q01DX011 (ip), vehicle: methylcellulose (MC)) was 53 % of control and the T/C (dose: 12.5 mg/kg/injection, schedule: Q01DX011 (ip), vehicle: saline) was 49 % of control. For the same molecule, the T/C [1] was 27 % of control, the T/C (dose: 25.0 mg/kg/injection, schedule: Q01DX011 (ip), vehicle: saline) was 14 % of control and the T/C [2] was 10 % of control. The T/C (dose: 50.0 mg/kg/injection, schedule: Q01DX011 (ip), vehicle: saline) was 4 % of control.
`C[C@]12CC[C@@H]3c4ccc(O)cc4CC[C@H]3[C@@H]1CC[C@@H]2O` was tested, and the T/C (dose: 125.0 mg/kg/injection, schedule: Q01DX011 (sc), vehicle: steriod suspending solution) was 77 % of control, the T/C (dose: 250.0 mg/kg/injection, schedule: Q01DX011 (sc), vehicle: steriod suspending solution) was 32 % of control and the T/C (dose: 500.0 mg/kg/injection, schedule: Q01DX011 (sc), vehicle: steriod suspending solution) was 65 % of control. The T/C (dose: 1000.0 mg/kg/injection, schedule: Q01DX011 (sc), vehicle: steriod suspending solution) was 42 % of control.
In the case of `OCCn1cnc2c(SCc3ccccc3Cl)ncnc21`, the T/C (dose: 15.0 mg/kg/injection, schedule: Q01DX011 (ip), vehicle: carboxymethylcellulose (CMC)) is reported as 77 % of control, the T/C [1] is reported as 97 % of control and the T/C [6] is reported as 49 % of control. For the same molecule, the T/C [7] was 22 % of control and the T/C [10] was 5 % of control.
For `c1ccc(N2CCSCC2)cc1`, the T/C (dose: 40.5 mg/kg/injection, schedule: Q01DX011 (ip), vehicle: methylcellulose (MC)) was 16 % of control and 28 % of control.
`Nc1nc(SCc2ccccc2Cl)c2ncn(C3CCCCC3)c2n1` was tested, and the T/C [1] was 180 % of control and the T/C [3] was 166 % of control.
